Measured values reported in PMC10817945, “Design of a novel analogue peptide with potent antibiofilm activities against Staphylococcus aureus based upon a sapecin B-derived peptide” (Scientific Reports, 2024).
Where two headings read alike, the source gives them in different places. Non-standard residues stand in square brackets, D forms with d. Residues, ends and D or L forms follow the SMILES beside them.

What was measured:
24-h S. aureus biofilms = test: Biofilm dispersal activity (crystal violet); format: cell-based, Staphylococcus aureus; settings: MSSA-2; 4MIC; control 2.116±0.006
Description: To investigate the dispersal activity of KLK and mKLK peptide, the 24-h S. aureus biofilms were prepared in TSB medium in the 96-well plates. Then, the final concentrations of 1×, 2×, and 4 × MIC were prepared for each peptide in the wells. After incubation at 37 °C for 12 h, plates were washed with PBS three times to discard unattached bacteria. Subsequently, plates were stained with 250 μl of 0.5% crystal violet for 20 min at room temperature. Then, the wells were washed and 250 μl 33% acetic acid was added to them. Finally, the absorbance was measured at 570 nm using a microplate reader.

[1] = tested on: one MRSA and reference strain (ATCC25923); test: Time-kill kinetics assay
Description: The peptide-free control was included for each strain. Following incubation at 37 °C for 0, 0.25, 0.5, 1, 2, 4, 5, and 24 h, each sample was serially diluted, plated onto Mueller–Hinton (MH) agar (Merck, Germany) plates and incubated at 37 °C. The viable plate count method was performed after incubation for 24 h and the counts were expressed as Log CFU/ml[44].

S. aureus strains = format: cell-based, Staphylococcus aureus; settings: for inhibition of biofilm formation: strains, 24 h
Description: To investigate the inhibitory effect of KLK and mKLK peptides on bacterial surface attachment and biofilm formation, the bacterial suspension in TSB with a concentration of 10^7 CFU/ml was prepared from overnight culture. An aliquot of 100 μl of the bacterial suspension was added to wells of 96-well plates containing 100 μl of the peptides solution with concentrations of 1×, 1/2× and 1/4× MIC, resulting in the final peptides concentrations of 1/2×, 1/4× and 1/8× MIC. To investigate the inhibitory effect of the peptides on surface attachment the incubation was performed at 37 °C for 2 h and to evaluate their inhibitory activity on biofilm formation the incubation was performed at 37 °C for 24 h. The wells containing only TSB medium were used as negative controls. After incubation, the contents of the wells were removed and washed three times with PBS and the wells were stained with 200 μl of 0.1% crystal violet for 20 min. The plates were washed again and excess dye was removed. A volume of 200 μl of 95% ethanol was added to each well for 20 min and absorbance was measured at 570 nm by a microplate reader.

Human red blood cells = test: in vitro
Description: (§1) The assay was performed using fresh human blood samples containing citrate phosphate dextrose anticoagulant collected from a blood bank (Iranian Blood Transfusion Organization). Human red blood cells (RBC) were centrifuged at 1700×g for 5 min; then the supernatant was removed and the erythrocyte pellet was diluted 1:100 in PBS to obtain a 1% erythrocyte suspension. […] Then, 50 μl of the 1% erythrocyte suspension and 50 μl of the peptides were mixed and added to wells of a 96-well polypropylene conical bottom microplate and incubated at 37 °C for 1 h. Following centrifugation of the samples at 1700×g for 5 min, 50 μl of the supernatant was transferred to wells of a 96-well flat-bottom plate for the absorbance measurement at 405 nm in a microplate reader. Identical volumes of Triton X-100 (1%) and PBS were used as positive and negative controls, respectively. The selectivity indexes (SI) were also determined as a toxicity indicator.

in vitro = settings: human
Description: as §1

CC(C)C[C@@H](NC(=O)[C@H](N)Cc1c[nH]c2ccccc12)C(=O)N[C@H](Cc1c[nH]c2ccccc12)C(=O)N[C@H](C)C(=O)N[C@H](CC(C)C)C(=O)N[C@H](CC(C)C)C(=O)N[C@H](CCCCN)C(=O)N[C@H](CC(C)C)C(=O)N[C@H](CC(C)C)C(=O)N[C@H](CCCCN)C(=O)N[C@H](CC(C)C)C(=O)N[C@H](CCCCN)C(N)=O [mKLK] (H-[dW][dL][dW][dA][dL][dL][dK][dL][dL][dK][dL][dK]-NH2; N-terminus assumed)
crystal violet absorbance at 570 nm, dispersal activity, Mean±SD (24-h S. aureus biofilms): 0.207±0.01 | time after which no regrowth was observed ([1]; ATCC 25923, 1 × MIC (4 μg/ml)): 30 min | reduction in viable cell count ([1]; ATCC 25923, 1 × MIC, during 15 min): ~1 log | time after which no regrowth was observed ([1]; ATCC 25923, 2 × MIC (8 μg/ml)): 15 min | time after which no regrowth was observed ([1]; MRSA, 1 × MIC): 240 min | reduction in viable cell count ([1]; MRSA, 1 × MIC (8 μg/ml), within 2 h): 2 log | crystal violet absorbance at 570 nm, biofilm formation, Mean±SD (S. aureus strains; ATCC25923, 1/2MIC, control 2.302±0.006): 0.207±0.02 | crystal violet absorbance at 570 nm, biofilm formation, Mean±SD (S. aureus strains; ATCC25923, 1/4MIC, control 2.302±0.006): 0.257±0.05 | crystal violet absorbance at 570 nm, biofilm formation, Mean±SD (S. aureus strains; ATCC25923, 1/8MIC, control 2.302±0.006): 0.678±0.01 | crystal violet absorbance at 570 nm, biofilm formation, Mean±SD (S. aureus strains; MRSA-1, 1/2MIC, control 2.115±0.01): 0.489±0.007 | crystal violet absorbance at 570 nm, biofilm formation, Mean±SD (S. aureus strains; MRSA-1, 1/4MIC, control 2.115±0.01): 0.572±0.01 | crystal violet absorbance at 570 nm, biofilm formation, Mean±SD (S. aureus strains; MRSA-1, 1/8MIC, control 2.115±0.01): 0.936±0.07 | crystal violet absorbance at 570 nm, biofilm formation, Mean±SD (S. aureus strains; MRSA-2, 1/2MIC, control 2.354±0.04): 0.444±0.008 | crystal violet absorbance at 570 nm, biofilm formation, Mean±SD (S. aureus strains; MRSA-2, 1/4MIC, control 2.354±0.04): 0.624±0.03 | crystal violet absorbance at 570 nm, biofilm formation, Mean±SD (S. aureus strains; MRSA-2, 1/8MIC, control 2.354±0.04): 0.923±0.07 | crystal violet absorbance at 570 nm, biofilm formation, Mean±SD (S. aureus strains; MRSA-3, 1/2MIC, control 1.541±0.02): 1.405±0.01 | crystal violet absorbance at 570 nm, biofilm formation, Mean±SD (S. aureus strains; MRSA-3, 1/4MIC, control 1.541±0.02): 0.322±0.02 | crystal violet absorbance at 570 nm, biofilm formation, Mean±SD (S. aureus strains; MRSA-3, 1/8MIC, control 1.541±0.02): 0.519±0.006 | crystal violet absorbance at 570 nm, biofilm formation, Mean±SD (S. aureus strains; MSSA-1, 1/2MIC, control 2.190±0.01): 0.236±0.03 | crystal violet absorbance at 570 nm, biofilm formation, Mean±SD (S. aureus strains; MSSA-1, 1/4MIC, control 2.190±0.01): 0.407±0.007 | crystal violet absorbance at 570 nm, biofilm formation, Mean±SD (S. aureus strains; MSSA-1, 1/8MIC, control 2.190±0.01): 0.622±0.02 | crystal violet absorbance at 570 nm, biofilm formation, Mean±SD (S. aureus strains; MSSA-2, 1/2MIC, control 1.802±0.02): 0.183±0.01 | crystal violet absorbance at 570 nm, biofilm formation, Mean±SD (S. aureus strains; MSSA-2, 1/4MIC, control 1.802±0.02): 0.225±0.01 | crystal violet absorbance at 570 nm, biofilm formation, Mean±SD (S. aureus strains; MSSA-2, 1/8MIC, control 1.802±0.02): 0.558±0.05 | inhibition of biofilm formation (S. aureus strains; 2): 80-91% | inhibition of biofilm formation (S. aureus strains; 4): 76-89% | inhibition of biofilm formation (S. aureus strains; 8): 63-73% | HC50 (Human red blood cells): 118.6 µg/mL | HC50 (Human red blood cells; red cells of human, 1 h): 77.8 µM | hemolysis at 1 h, 1.56 µM (in vitro): 0% | hemolysis at 1 h, 3.12 µM (in vitro): 0.3% | hemolysis at 1 h, 6.25 µM (in vitro): 1.8% | hemolysis at 1 h, 12.5 µM (in vitro): 9.3% | hemolysis at 1 h, 25 µM (in vitro): 15.4% | hemolysis at 1 h, 50 µM (in vitro): 36.2% | hemolysis at 1 h, 75 µM (in vitro): 48.2% | hemolysis at 1 h, 100 µM (in vitro): 58.2% | hemolysis at 1 h, 150 µM (in vitro): 62.4% | hemolysis at 1 h, 200 µM (in vitro): 67.1%
